Measured values: patent US7025999B2, “Chewing gum having prolonged sensory benefits” (Wm. Wrigley Jr. Company, priority 2001, dated 2006)

test: Relative sweetness of hydrophobic sweetener compounds (factor used for the Sucrose Equivalent calculation); details: Sucrose Equivalent = weight percent in the chewing gum multiplied by relative sweetness
Text: It should be appreciated that due to the slow release of hydrophobic sweeteners from the chewing gum, it is believed that higher levels of the hydrophobic sweeteners as compared to typical water soluble sweeteners may be necessary to provide the desired level of sweetness or sweetness intensity. The amount can suitably vary depending on any number of factors, such as the desired level of sweetness and the relative sweetness intensity specific to the hydrophobic sweetener compound. As detailed below, the relative sweetness can vary depending on the type of hydrophobic sweetener compound. In an embodiment, chewing gum includes the hydrophobic sweetener compound in an amount ranging from about 50 to about 5000 Sucrose Equivalents. The Sucrose Equivalent factor is determined by multiplying the weight percent of the hydrophobic compound in the chewing gum by its relative sweetness. By way of example and not limitation, the following tables illustrate a variety of hydrophobic sweetener compounds representative of the hydrophobic sweetener compounds of Formulas I–XI, as previously discussed. The tables also indicate the relative sweetness of the hydrophobic sweetener compounds. As previously discussed, this factor can be utilized to calculate the Sucrose Equivalent calculation which relates to the amount of hydrophobic sweetener in the chewing gum.

In order of rising “Relative Sweetness” value:
1. COc1ccc(OCc2ccccc2C(=O)O)cc1O [Compound 26]  10
2. COc1ccc(OC(=O)c2ccccc2C(=O)O)cc1 [Compound 34]  10
3. COc1ccc(C2OCc3ccccc3S2)cc1S (stereo not shown) [Compound 16]  50
4. COc1ccc(C2CS(=O)(=O)c3ccccc3O2)cc1O (stereo not shown) [Compound 19]  50
5. COc1ccc([S+]([O-])c2ccccc2C(=O)O)cc1 (stereo not shown) [Compound 23]  50
6. COc1ccc(C(=O)/C=C/C(=O)O)cc1 [Compound 33]  50
7. COc1ccc(CCC(=O)c2cccc(C(=O)O)c2)cc1O [Compound 25]  80
8. Oc1cccc(C2OCc3ccccc3S2)c1 (stereo not shown) [Compound 18]  100
9. O=C(O)c1ccccc1C(=O)c1ccc(O)c(O)c1 [Compound 22]  100
10. COc1ccc(C2Oc3ccccc3O2)cc1O [Compound 15]  150
11. COc1ccc(C(=O)c2ccccc2C(=O)[O-])cc1.[Na+] [Compound 36]  150
12. COc1ccc(C2COc3ccccc3C2)cc1O (stereo not shown) [Compound 1]  200
13. COc1ccc(C2CCc3ccccc3S2)cc1O (stereo not shown) [Compound 10]  200
14. COc1ccc(C2Sc3ccccc3S2)cc1O [Compound 13]  200
15. Oc1ccc(C2OCc3ccccc3S2)cc1O (stereo not shown) [Compound 17]  200
16. O=C(O)c1ccccc1C(=O)c1ccc(O)cc1 [Compound 30]  200
17. COc1ccc(C2CSc3ccccc3O2)cc1O (stereo not shown) [Compound 7]  250
18. COc1ccc(C(=O)c2ccccc2C(=O)O)cc1O [Compound 21]  250
19. COc1ccc(C2Oc3ccccc3S2)cc1O (stereo not shown) [Compound 14]  300
20. COc1ccc(CCc2ccccc2)cc1O [Compound 27]  300
21. COc1ccc(C2Cc3ccccc3CO2)cc1O (stereo not shown) [Compound 2]  350
22. COc1ccc(C2CCc3ccccc3O2)cc1O (stereo not shown) [Compound 3]  350
23. COc1ccc(C2COc3ccccc3O2)cc1O (stereo not shown) [Compound 4]  450
24. COc1ccc(C2CSc3ccccc3S2)cc1O (stereo not shown) [Compound 12]  450
25. COc1ccc(C2Oc3ccccc3CS2)cc1O (stereo not shown) [Compound 6]  500
26. COc1ccc(C2CSc3cc(O)ccc3O2)cc1O (stereo not shown) [Compound 20]  500
27. COc1ccc(CCC(=O)c2c(O)cc(O)cc2O)cc1O [Compound 24]  665
28. COc1ccc(C2SCc3ccccc3S2)cc1O (stereo not shown) [Compound 11]  1000
29. COc1ccc(C2COc3ccccc3S2)cc1O (stereo not shown) [Compound 9]  2000
30. COc1ccc(C2OCc3ccccc3O2)cc1O (stereo not shown) [Compound 5]  3000
31. COc1ccc(C2OCc3ccccc3S2)cc1O (stereo not shown) [Compound 8]  9000
